# From patent US10525032B2, “Antimicrobial compositions comprising mupirocin and neomycin” (University of Rochester, priority 2015, dated 2020)
# Read-outs that look alike come from different tables or passages of the source.
# Experiments:
# [1] = test system: S. aureus strain UAMS-1; experiment: Fractional inhibitory concentration index (FIC) checkerboard testing with mupirocin; assay type: cell-based, Staphylococcus aureus; conditions: combined with mupirocin, additive = 0.5-1.0
# Description: (§1) Antimicrobial Susceptibility Testing. Minimum inhibitory concentration (MIC) was tested in accordance with the Clinical and Laboratory Standards Institute (CLSI) guidelines. Briefly, 1×10^5 CFU of the indicated S. aureus strain was added to individual wells of a microtiter plate containing 88 μL of MHB media and two-fold increasing concentrations of mupirocin or test agent (0-128 μg ml^−1). Plates were incubated for 16 hr at 37° C. and wells were visually inspected for growth. The lowest concentration of mupirocin or test agent that inhibited S. aureus growth was considered to be the minimum inhibitory concentration. Fractional inhibitory concentration index (FIC) testing was performed to measure interactions between mupirocin and neomycin, as previously described. See Odds F C. 2003. Synergy, antagonism, and what the chequerboard puts between them. The Journal of antimicrobial chemotherapy 52:1. Briefly, in checkerboard format each row of the plate contained increasing concentrations of mupirocin (2-fold increments; 0-0.5 μg/mL), whereas each column contained increasing concentrations of neomycin (2-fold increments; 0-32 μg/mL). To every well (100 μl total volume) MHB containing 3×10^5 CFU of S. aureus strain UAMS-1 was added and the plate was incubated at 37° C. overnight (16-20 hr). The FIC was determined using the following formula: (MIC of Drug A in Combination/MIC of Drug A Alone)+(MIC of Drug B in Combination/MIC of Drug B Alone)=FIC. A synergistic interaction was defined as an FIC value≤0.5, additive as FIC value 0.5-1.0, no interaction as an FIC of 1-4, or an antagonistic interaction FIC>4.
# [2] = test system: S. aureus strain UAMS-1; experiment: Minimum inhibitory concentration (MIC) testing, CLSI microtiter, with or without mupirocin; assay type: cell-based, Staphylococcus aureus; conditions: for MIC: Staphylococcus aureus
# Description: Screen of Selleck Library. Members of the Selleck Library of Food and Drug […] approved drugs (Selleck Chemicals, Houston Tex., L1300) were screened for agents that potentiate the antimicrobial activity of mupirocin toward S. aureus strain UAMS-1. To do so, 1×10^5 colony forming units of UAMS-1 were added to individual wells of a 96-well microtiter plate, mixed with 0.03 μg/mL mupirocin (0.5× minimum inhibitory concentration) and 50 μM of test agent in Mueller Hinton broth (MHB; 100 μL total well volume). Microtiter plates were incubated at 37° C. for 16 hr, and individual wells were inspected for growth. Wells lacking growth were considered to represent agents that either potentiated the antimicrobial properties of mupirocin or mupirocin-independent antimicrobial microbial properties.
# as §1
# Members of the Selleck library of 853 FDA approved drugs were screened for agents that potentiate the activity of mupirocin. […] Conversely, the antimicrobial activity of Nitazoxanide, Nitrofurazone, and Neomycin sulfate, increased in the presence of mupirocin.
# [3] = test system: S. aureus strain UAMS-1; experiment: Murine dermal wound model of infection; assay type: in vivo, Staphylococcus aureus
# Description: Dermal Wound Model of Infection and Treatment of Mice. The effects of ointment compilations were evaluated for in vivo antimicrobial activity using a S. aureus dermal wound model, but with modifications. See Guthrie K M, Agarwal A, Tackes D S, Johnson K W, Abbott N L, Murphy C J, Czuprynski C J, Kierski P R, Schurr M J, McAnulty J F. 2012. Antibacterial efficacy of silver-impregnated polyelectrolyte multilayers immobilized on a biological dressing in a murine wound infection model. Annals of surgery 256:371-377. Mice were anesthetized by intraperitoneal injection with a mixture of 100 mg ml^−1 Ketamine (Hospira Inc., Lake Forest Ill.) and 20 mg ml^−1 Xylazine (Lloyd Laboratories, Shenandoah Iowa) in NaCl at five μ1 per 1 g body weight. Pain relief in the form of 20 μL 0.5% Sensorcaine (APP Pharmaceuticals, Schaumburg, Ill.) was administered prior to dermal wounding. […]
# To do so, a dermal wound was created on the back of Balb-c mice, inoculated with either S. aureus strain UAMS-1, USA300, or BAA-1708, and then treated with test agent suspended in PEG-based ointment twice a day for a total of 3 days, at which point bacterial burden was measured.
# [4] = test system: S. aureus strain UAMS-1; conditions: previous studies; cited from earlier work
# [5] = test system: S. aureus strain UAMS-1; assay type: in vivo, Staphylococcus aureus; conditions: Balb-c mice
# Description: Nasal Colonization and Treatment of Mice. Ointments were evaluated for in vivo antimicrobial activity using a S. aureus nasal colonization model as previously described, but with modifications. See Kiser K B, Cantey-Kiser J M, Lee J C. 1999. Development and characterization of a Staphylococcus aureus nasal colonization model in mice. Infect Immun 67:5001-5006. The nostrils of awake mice were inoculated with 1×10^7 of the indicated S. aureus strain by pipetting 10 μL of culture directly into the nostrils and confirmed by the visualization of air bubbles appearing as the mouse breathed in and out. Mice nostrils were then treated with 10 μL PEG ointment (brought to 55° C. in a heat block to liquefy) containing either vehicle alone or the indicated antibiotic 45 min post inoculation and treatments were repeated every 8 hr for three days. […]
# A murine model of S. aureus nasal colonization was used to compare the antimicrobial efficacy of mupirocin, neomycin, and the two agents when applied in combination. To do so, the nasal passage of Balb-c mice were inoculated with ˜1×10^7 colony forming units of S. aureus then treated three times a day for a total of three days, at which point the bacterial burden was measured and the antibiotic susceptibility of ten isolates from each animal was measured by MIC testing.
# [6] = test system: strain BAA-1708; experiment: MIC testing; assay type: cell-based; conditions: Staphylococcus aureus, BAA1708; BAA-1708 (mupA), data not shown
# Description: as §1, with “To every well (100 μl total volume) MHB containing 3×10^5 CFU of S. aureus strain UAMS-1 was added and the plate was incubated at 37° C. overnight (16-20 hr).” left out, “A synergistic interaction was defined as an FIC value≤0.5, additive as FIC value 0.5-1.0, no interaction as an FIC of 1-4, or an antagonistic interaction FIC>4.” left out
# [7] = test system: USA300; experiment: MIC testing; assay type: cell-based, Staphylococcus aureus; conditions: USA300, data not shown
# Description: as §1, with “To every well (100 μl total volume) MHB containing 3×10^5 CFU of S. aureus strain UAMS-1 was added and the plate was incubated at 37° C. overnight (16-20 hr).” left out, “A synergistic interaction was defined as an FIC value≤0.5, additive as FIC value 0.5-1.0, no interaction as an FIC of 1-4, or an antagonistic interaction FIC>4.” left out
# [8] = test system: S. aureus RNase P; experiment: RNase P ptRNA processing assay; assay type: biochemical, Staphylococcus aureus; conditions: 250 μM, in vitro
# Description: RNase P ptRNA Processing Assay. S. aureus RNase P activity assays were performed as previously described. See Eidem T M, Lounsbury N, Emery J F, Bulger J, Smith A, Abou-Gharbia M, Childers W, Dunman P M. 2015. Small-molecule inhibitors of Staphylococcus aureus RnpA-mediated RNA turnover and tRNA processing. Antimicrob Agents Chemother 59:2016-2028. Briefly, RNase P was first reconstituted by mixing an equimolar ratio of denatured rnpB and RnpA for 15 min at 37° C. then added (5 pmol) to 10 pmol of ptRNA^Tyr, and increasing concentrations of the indicated concentration of neomycin or the known RNase P inhibitor, RNPA2000 in a total volume of 20 μl. […] A FluorChem 5500 imaging system was used to visualize RNA products and quantified using ImageJ software (National Institutes of Health, Bethesda Md.). The percent RNase P activity was then calculated using the following equation: test compound tRNA^Tyr signal/mock tRNA^Tyr signal.
# Aminoglycoside antibiotics, such has neomycin, contain a central deoxystreptamine ring decorated with amino-sugar modifications and act by binding to the major groove of the 16S rRNA to disrupt the fidelity of tRNA selection and block protein translation. […] A real-time fluorescence polarization activity assay to screen for inhibitors of bacterial ribonuclease P. Nucleic acids research 42:e159.
# [9] = UAMS1, medium containing 0.25× the strain's mupirocin MIC, UAMS-1, read-out: MIC (+) Mup.
# [10] = UAMS1, read-out: MIC (−) Mup., medium lacking mupirocin, UAMS-1
compound,measurement,setting,value
CC(=O)Oc1ccccc1C(=O)Nc1ncc([N+](=O)[O-])s1 [Nitazoxanide],Fractional Inhibitory Concentration Index,[1],0.75
same,MIC,[2]; [9],8 µg/mL
same,MIC,[2]; [10],16 µg/mL
NC(=O)N/N=C/c1ccc([N+](=O)[O-])o1 [Nitrofurazone],Fractional Inhibitory Concentration Index,[1],0.75
same,MIC,[2]; [9],8 µg/mL
same,MIC,[2]; [10],16 µg/mL
CC(C)c1ccc(OCC(=O)NNC(=S)NC(=O)c2ccco2)cc1 [RNPA2000],wound decolonization (in words),[3],does not exhibit antimicrobial activity
same,FIC measures with mupirocin,[4],< 0.5
same,nasal decolonization (in words),[5],does not exhibit antimicrobial activity
C/C(=C\C(=O)OCCCCCCCCC(=O)O)C[C@@H]1OC[C@H](C[C@@H]2O[C@H]2[C@@H](C)[C@H](C)O)[C@@H](O)[C@H]1O [mupirocin],MIC,[6],> 256 µg/mL
same,MIC,"[2]; UAMS1, UAMS-1 isolates from two 2% mupirocin treated mice with higher nasal burdens",0.5 µg/mL
same,MIC,"[2]; UAMS1, inoculating strain UAMS-1 and isolates from the other animals of the 2% mupirocin nasal treatment group",0.125 µg/mL
same,MIC,"[2]; UAMS1, read-out: mupirocin minimum inhibitory concentration (MIC), UAMS-1, as stated for the library screen",0.3 µg/mL
same,increase in mupirocin tolerance,[2]; isolates from two higher-burden mice versus inoculating strain,4 fold
neomycin,Fractional Inhibitory Concentration Index,[1],0.75
same,MIC,[7],128 µg/mL
same,MIC (+) Mup.,"[2]; medium containing 0.25× the strain's mupirocin MIC, UAMS-1",0.25 µg/mL
same,MIC (−) Mup.,"[2]; medium lacking mupirocin, UAMS-1",0.5 µg/mL
same,inhibition of RNase P-catalyzed maturation of precursor tRNA^Tyr,[8],inhibit
